Series [1] concerns P. falciparum CQ-sensitive strain 3D7. Briefly: In vitro antiplasmodial activity, SYBR Green I fluorescence-based method, 3D7 strain. It is filed as cell-based, Plasmodium falciparum. To be noted: for IC50: Plasmodium falciparum, 3D7, 48 h, chloroquine-sensitive strain 3D7, 48 h incubation, read-out: P. falciparum strains IC50 values, 3D7; for Selectivity Index HepG2/3D7: ratio CC50 HepG2 / IC50 3D7. As to the method:
(§1) The in vitro antiplasmodial activities were tested over concentrations ranging from 39 nM to 40 μM against culture-adapted Plasmodium falciparum reference strains 3D7 and W2. […] The parasites were cultivated in RPMI medium (Sigma-Aldrich, Lyon, France) supplemented with 0.5% Albumax I (Life Technologies corporation, Paisley, United Kingdom), hypoxanthine (Sigma-Aldrich), gentamicin (Sigma-Aldrich), and human erythrocytes and were incubated at 37 °C in a candle jar, as described previously. The P. falciparum drug susceptibility test was carried out in 96-well flat bottom sterile plates under a final volume of 250 μL. After a 48 h incubation with the drugs, quantities of DNA in treated and control cultures of parasites in human erythrocytes were compared according to the SYBR Green I (Sigma-Aldrich) fluorescence-based method[38]^,[39]. Briefly, after incubation, plates were frozen at -20 °C until use. They were then left to thaw for 2 h at room temperature and 100 μL of the homogenized culture were transferred to 96-well flat bottom sterile black plates (Nunc Inc) already containing 100 μL of the SYBR Green I lysis buffer (2xSYBR Green, 20 mM Tris base pH 7.5, 5 mM EDTA, 0.008% w/v saponin, 0.08% w/v Triton X-100). […] Plates were incubated for 1 h at room temperature and then read on a fluorescence plate reader (Tecan, Austria) using excitation and emission wavelengths of 485 and 535 nm, respectively.

The subject of series [2] is P. falciparum CQ-resistant strain W2. Briefly: In vitro antiplasmodial activity, SYBR Green I fluorescence-based method, W2 strain. It is filed as cell-based, Plasmodium falciparum. To be noted: for IC50: Plasmodium falciparum, chloroquine-resistant strain W2, 48 h incubation, read-out: P. falciparum strains IC50 values, W2; for Selectivity Index HepG2/W2: ratio CC50 HepG2 / IC50 W2. The protocol:
as §1

The subject of series [3] is L. donovani (MHOM/IN/00/DEVI) promastigotes. Briefly: In vitro antileishmanial activity on promastigotes, MTT assay. It is filed as cell-based. As to conditions: Leishmania donovani, 72 h incubation, mean ± SD of three independent experiments. As to the method: L. donovani (MHOM/IN/00/DEVI) used in this study was provided by the CNR Leishmania (Montpellier, France). The effects of the tested compounds on the growth of L. donovani (MHOM/IN/00/DEVI)promastigotes were assessed by MTT assay[41] .Briefly, promastigotes in log-phase in Schneider′s medium supplemented with 20% fetal calf serum (FCS), 2 mM L-glutamine and antibiotics (100 U/mL penicillin and 100 μg/mL streptomycin), were incubated at an average density of 10^6 parasites/mL in sterile 96-well plates with various concentrations of compounds dissolved in DMSO (final concentration less than 0.5% v/v), in duplicate. Appropriate controls treated by DMSO and pentamidine or amphotericin B (reference drugs purchased from Sigma-Aldrich) were added to each set of experiments. After a 72 h incubation period at 27 °C, parasite metabolic activity was determined. Each plate-well was then microscope-examined for detecting possible precipitate formation. 20 μL of MTT 3–(4,5-dimethylthiazol-2-yl)-2,5-diphenyltetrazolium bromide) solution (5 mg/mL) were added to each well followed by incubation for another 4 h. The enzyme reaction was then stopped by addition of 100 μL of 50% isopropanol – 10% sodium dodecyl sulfate[42] .Plates were shaken vigorously (300 rpm) for 10 minutes and the absorbance measured in a plate reader at 570 nm in a BIO-TEK ELx808 Absorbance Microplate Reader. […] IC50 were calculated by non-linear regression analysis processed on doseresponse curves, using TableCurve 2D V5.0 software. IC50 values represent the mean value calculated from three independent experiments.
A general note: Tetrazolium dyes change colour on reduction, which living cells bring about.

The nature of series [4]: Cytotoxicity evaluation, MTT assay. It is filed as cell-based, human. As to conditions: human, HepG2 cells (hepatocarcinoma cell line, ATCC HB-8065); HepG2, 72 h incubation, mean ± SD of three independent experiments. The protocol: These assays were performed toward the human HepG2 cell line (HepG2 CC50). […] These cells express many of the hepatocyte-specific metabolic enzymes, thus enabling the cytotoxicity of tested product metabolites to be evaluated. […] Duplicate assays were performed for each sample. Each plate-well was then microscope-examined for detecting possible precipitate formation before the medium was aspirated from the wells. 100 μL of MTT solution (0.5 mg/mL in medium without FCS) were then added to each well. […] After this time, the MTT solution was removed and DMSO (100 μL) was added to dissolve the resulting blue formazan crystals. Plates were shaken vigorously (300 rpm) for 5 minutes. The absorbance was measured at 570 nm with 630 nm as reference wavelength spectrophotometer using a BIO-TEK ELx808 Absorbance Microplate Reader. DMSO was used as blank and doxorubicin (Sigma Aldrich) as positive control. Cell viability was calculated as percentage of control (cells incubated without compound). The 50% cytotoxic concentration was determined from the dose-response curve by using the TableCurve 2D V5.0 software (Systat Software, San Jose, CA).

Where a name gives a salt, the structure may show the parent alone. Bounds are passed on as bounds.

What is called melting point is the temperature, or range, at which the solid turns liquid. For the molecule `COc1ccc2nc(-c3cccc(CNCCCN(CCCNCc4cccc(-c5nc6ccc(OC)cc6n6cccc56)c4)CCCNCc4cccc(-c5nc6ccc(OC)cc6n6cccc56)c4)c3)c3cccn3c2c1` (as salt: ammonium) [1t, Tris{N-[3–(8-methoxypyrrolo[1,2-a]quinoxalin-4-yl)benzyl]-3-aminopropyl}amine], the melting point lay within 184 to 187 °C.

`CCOc1ccn2c1c(-c1ccc(CNCCCN(C)CCCNCc3ccc(-c4nc5ccccc5n5ccc(OCC)c45)cc3)cc1)nc1ccccc12` (as salt: ammonium) [1j, Bis{N-[4–(3-ethoxypyrrolo[1,2-a]quinoxalin-4-yl)benzyl]-3-aminopropyl}methylamine] displayed a melting point of 192 to 195 °C.

The molecule `c1ccc2c(c1)nc(-c1ccc(CNCCCN3CCN(CCCNCc4ccc(-c5nc6ccccc6n6cccc56)cc4)CC3)cc1)c1cccn12` (as salt: ammonium) [1c, Bis{N-[4-(pyrrolo[1,2-a]quinoxalin-4-yl)benzyl]-3-aminopropyl}piperazine] returned a melting point above 260 °C.

`COc1ccc2nc(-c3cccc(CNCCOCCOCCOCCNCc4cccc(-c5nc6ccc(OC)cc6n6cccc56)c4)c3)c3cccn3c2c1` (as salt: ammonium) [1u, N,N′-[oxybis(2,1-ethanediyloxy-2,1-ethanediyl)]bis-3–(8-methoxypyrrolo[1,2-a]quinoxalin-4-yl)benzylamine] displayed a melting point of 141 to 144 °C.

Molecule `COc1cccc2nc(-c3ccc(CNCCCN(C)CCCNCc4ccc(-c5nc6cccc(OC)c6n6cccc56)cc4)cc3)c3cccn3c12` (as salt: ammonium) [1h, Bis{N-[4–(9-methoxypyrrolo[1,2-a]quinoxalin-4-yl)benzyl]-3-aminopropyl}methylamine] showed a melting point of 160 to 162 °C.

With `COc1ccc2nc(-c3cccc(CNCCCN(C)CCCNCc4cccc(-c5nc6ccc(OC)cc6n6cccc56)c4)c3)c3cccn3c2c1` (as salt: ammonium) [1o, Bis{N-[3–(8-methoxypyrrolo[1,2-a]quinoxalin-4-yl)benzyl]-3-aminopropyl}methylamine], the melting point is 188 to 191 °C.

In turn, `c1ccc2c(c1)nc(-c1ccc(CNCCCNCCCNCc3ccc(-c4nc5ccccc5n5cccc45)cc3)cc1)c1cccn12` (as salt: ammonium) [1a, Bis{N-[4-(pyrrolo[1,2-a]quinoxalin-4-yl)benzyl]-3-aminopropyl}amine] yielded a melting point above 260 °C.

Consider `COc1ccc2nc(-c3ccc(CNCCCN4CCN(CCCNCc5ccc(-c6nc7ccc(OC)cc7n7cccc67)cc5)CC4)cc3)c3cccn3c2c1` (as salt: ammonium) [1g, Bis{N-[4–(8-methoxypyrrolo[1,2-a]quinoxalin-4-yl)benzyl]-3-aminopropyl}piperazine], for which the melting point is 236 to 239 °C.

As a reminder, the IC50 is the concentration needed to halve the response being measured. The term CC50 denotes the concentration that lowers cell viability or growth by half. Consider `CCOc1ccn2c1c(-c1ccc(CNCCCN3CCN(CCCNCc4ccc(-c5nc6ccccc6n6ccc(OCC)c56)cc4)CC3)cc1)nc1ccccc12` [1k, Bis{N-[4–(3-ethoxypyrrolo[1,2-a]quinoxalin-4-yl)benzyl]-3-aminopropyl}piperazine], for which the values for the half-maximal inhibitory concentration (IC50) in series [1], in series [2] and in series [3] were 190 ± 10 nM, 90 ± 10 nM and at least 10 µM, respectively. For the same molecule, in series [1], the “Selectivity Index HepG2/3D7” value is 7.79. Besides, the “Selectivity Index HepG2/W2” value in series [2] came out at 16.44. Moreover, in series [4], the CC50 at 72 h was 1480 ± 500 nM.

As to `c1cc(CNCCCN2CCN(CCCNCc3cccc(-c4nc5ccccc5n5cccc45)c3)CC2)cc(-c2nc3ccccc3n3cccc23)c1` [1n, Bis{N-[3-(pyrrolo[1,2-a]quinoxalin-4-yl)benzyl]-3-aminopropyl}piperazine], in series [1], the half-maximal inhibitory concentration (IC50) came out at 370 ± 40 nM and the “Selectivity Index HepG2/3D7” value amounted to 5.49. Besides, in series [2], the IC50 is 50 ± 10 nM and the “Selectivity Index HepG2/W2” value is 40.6. For the same molecule, the IC50 in series [3] was found to be 3.71 ± 0.4 µM. In series [4], this molecule displayed a CC50 at 72 h of 2030 ± 1200 nM.

`c1ccc2c(c1)cc1c(-c3ccc(CNCCCN4CCN(CCCNCc5ccc(-c6nc7ccccc7n7c6cc6ccccc67)cc5)CC4)cc3)nc3ccccc3n12` (as salt: ammonium) [1q, Bis{N-[4-(indolo[1,2-a]quinoxalin-6-yl)benzyl]-3-aminopropyl}piperazine] registered a melting point above 260 °C.

On to `CN(CCCNCc1ccc(-c2nc3ccccc3n3cccc23)cc1)CCCNCc1ccc(-c2nc3ccccc3n3cccc23)cc1` (as salt: ammonium) [1b, Bis{N-[4-(pyrrolo[1,2-a]quinoxalin-4-yl)benzyl]-3-aminopropyl}methylamine], for which the melting point lay in the range of 245 to 248 °C.

For `COc1ccc2c(c1)nc(-c1ccc(CNCCCN(CCCNCc3ccc(-c4nc5cc(OC)ccc5n5cccc45)cc3)CCCNCc3ccc(-c4nc5cc(OC)ccc5n5cccc45)cc3)cc1)c1cccn12` (as salt: ammonium) [1s, Tris{N-[4–(7-methoxypyrrolo[1,2-a]quinoxalin-4-yl)benzyl]-3-aminopropyl}amine], the melting point fell in the range of 192 to 194 °C.

On to `COc1ccc2nc(-c3ccc(CNCCCN(C)CCCNCc4ccc(-c5nc6ccc(OC)cc6n6cccc56)cc4)cc3)c3cccn3c2c1` [1f, Bis{N-[4–(8-methoxypyrrolo[1,2-a]quinoxalin-4-yl)benzyl]-3-aminopropyl}methylamine], for which the IC50 in series [1] is 5850 ± 70 nM; in series [2], 130 ± 10 nM; in series [3], 4.25 ± 0.2 µM. Besides, in series [1], the “Selectivity Index HepG2/3D7” value was found to be 0.58. For the same molecule, the “Selectivity Index HepG2/W2” value in series [2] was 26. The same molecule registered a half-maximal cytotoxic concentration (CC50) at 72 h in series [4] of 3380 ± 900 nM.

On to `c1ccc2c(c1)nc(-c1ccc(CNCCCN3CCN(CCCNCc4ccc(-c5nc6ccccc6n6cccc56)cc4)CC3)cc1)c1cccn12` [1c, Bis{N-[4-(pyrrolo[1,2-a]quinoxalin-4-yl)benzyl]-3-aminopropyl}piperazine], for which, in series [1], the concentration for half-maximal inhibition (IC50) worked out at 800 ± 120 nM and the “Selectivity Index HepG2/3D7” value is recorded as 1.56. Moreover, in series [2], the 50% inhibitory concentration (IC50) was found to be 3400 ± 740 nM and the “Selectivity Index HepG2/W2” value came to 0.37. This molecule gave an IC50 in series [3] of 1.14 ± 0.2 µM. In series [4], the 50% cytotoxic concentration (CC50) at 72 h was found to be 1250 ± 300 nM.

For the molecule `COc1ccc2nc(-c3ccc(CNCCCN4CCN(CCCNCc5ccc(-c6nc7ccc(OC)cc7n7cccc67)cc5)CC4)cc3)c3cccn3c2c1` [1g, Bis{N-[4–(8-methoxypyrrolo[1,2-a]quinoxalin-4-yl)benzyl]-3-aminopropyl}piperazine], in series [1], the half-inhibitory concentration (IC50) amounted to 2220 ± 250 nM and the “Selectivity Index HepG2/3D7” value was 0.96. Besides, in series [2], the half-inhibitory concentration (IC50) amounted to 360 ± 40 nM and the “Selectivity Index HepG2/W2” value came out at 5.94. Further, in series [3], the concentration for half-maximal inhibition (IC50) turned out to be 1.07 ± 0.1 µM. For the same molecule, in series [4], the cytotoxic concentration (CC50) at 72 h stood at 2140 ± 1400 nM.

Consider `COc1ccc2c(c1)nc(-c1ccc(CNCCCN(C)CCCNCc3ccc(-c4nc5cc(OC)ccc5n5cccc45)cc3)cc1)c1cccn12` [1d, Bis{N-[4–(7-methoxypyrrolo[1,2-a]quinoxalin-4-yl)benzyl]-3-aminopropyl}methylamine], for which, in series [1], the IC50 came out at 4140 ± 30 nM and the “Selectivity Index HepG2/3D7” value is reported as 0.62. Also, in series [2], the IC50 amounted to 340 ± 40 nM and the “Selectivity Index HepG2/W2” value is 7.56. The molecule also returned a half-maximal inhibitory concentration (IC50) in series [3] of 3.89 ± 0.3 µM. Further, the 50% cytotoxic concentration (CC50) at 72 h in series [4] came to 2570 ± 700 nM.
